For data set [1], the system named is intraperitoneal SKOV3-luc ovarian tumor. Put plainly: Biodistribution after i.p. injection, xenograft model III. Format: in vivo, mice. The settings on record: up to 72 h. As for the experimental part:
PEG^5000-CA8 (polymer 7) nanoparticles biodistribution after i.p. injection in intraperitoneal SKOV3-luc ovarian tumor bearing mice was investigated. Mice were injected i.p. with free DiD or DiD-loaded PEG^5000-CA8 nanoparticles. […] At 72 h, the peritoneal cavity was exposed and scanned with the Kodak imaging station, displaying DiD-labeled PEG^5000-CA8 nanoparticles localization on the surface of peritoneal tumor nodules (FIGS. 38A-38B).

In data set [2] the test system is SKOV-3 ovarian cancer xenografts. Nature of the data set: Size effect on biodistribution, NIR imaging, xenograft model II. Further details: species or system nude mice. To be noted: in vivo NIR imaging. As for the experimental part:
To study the effects of particle size on the in vivo biodistribution of nanoparticles, the same concentration of DiD (a hydrophobic near infra-red (NIR) cyanine dye, 1 mg/mL) was co-loaded with PTX (4 mg/mL, 4 mg/mL and 3 mg/mL, respectively) into 20 mg/mL micelle solutions of PEG^2000-CA4, PEG^5000-CA8 and PEG^3000-CA4, to form three fluorescence labeled micelle preparations with distinct sizes of 17 nm, 64 nm and 154 nm, respectively (FIG. 35A). Each of these three sizes of DiD-loaded micelles was incubated with Raw 264.7 macrophage cells for 2 h. The cells were then washed three times with PBS, fixed with 70% ethanol and observed under confocal fluorescence microscope. […] NIR fluorescent imaging was used to evaluate the in vivo biodistribution of the three micelles with different sizes in nude mice bearing the SKOV-3 ovarian cancer xenografts (subcutaneous and intraperitoneal implants). The mice were injected via the tail vein with the same volume of the above three PTX-DiD loaded micelle preparations in PBS. Ex vivo imaging of the excised organs and tumors were performed at 24 h after injection. […] The in vivo NIR images of a tumor bearing mouse treated with the DiD-PTX-PEG^5000CA8 was recorded over time (FIG. 35D). The accumulation of the DiD loaded micelles at the tumor site via the EPR effect began at 2 h after injection and continued to increase over the 24 h period.

On to `CCCCCCCCCCCCCCCCCCN1C(=CC=CC=CC2=[N+](CCCCCCCCCCCCCCCCCC)c3ccccc3C2(C)C)C(C)(C)c2ccccc21.[O-][Cl+3]([O-])([O-])[O-]` [DiD, 1,1′-dioctadecyl-3,3,3′,3′-tetramethylindo-dicarbocyanine perchlorate], for which the “fluorescence distribution after i.p. injection” value in data set [1] is given as “declined to a level not distinguishable from background auto-fluorescence at 72 h”. Besides, in data set [2], the tumor targeting entry was “no tumor targeting was found”.

Source of the values: patent publication US10556021B2, “Nanocarriers for drug delivery” (THE REGENTS OF THE UNIVERSITY OF CALIFORNIA, priority 2008, dated 2020).
